Test results published in PubChem BioAssay AID1259407 (Chemical Carcinogenesis Research Information System (CCRIS), 2018).
The source made the active and inactive calls. How the calls were made is not given here.

Test system: CCRIS mutagenicity, Ames/micronucleus/aberration tests
Experiment: CCRIS mutagenicity studies
[1] = Test System: AMES SALMONELLA TYPHIMURIUM, Strain/Indicator: TA98, Metabolic Activation: NONE, Method: PREINCUBATION
[2] = Test System: AMES SALMONELLA TYPHIMURIUM, Strain/Indicator: TA100, Metabolic Activation: NONE, Method: PREINCUBATION
[3] = Test System: AMES SALMONELLA TYPHIMURIUM, Strain/Indicator: TA1535, Metabolic Activation: NONE, Method: PREINCUBATION
[4] = Test System: AMES SALMONELLA TYPHIMURIUM, Strain/Indicator: TA1537, Metabolic Activation: NONE, Method: PREINCUBATION
[5] = Test System: AMES SALMONELLA TYPHIMURIUM, Strain/Indicator: TA100, Metabolic Activation: NONE, Method: STANDARD PLATE

Question: What does the source list for `CC(C)c1ccccc1O`?
Answer: mutagenic call [1]: inactive; negative; mutagenic call (Test System: AMES SALMONELLA TYPHIMURIUM, Strain/Indicator: TA98, Metabolic Activation: RAT LIVER S-9, PHENOBARBITAL AND BETA-NAPHTHOFLAVONE, Method: PREINCUBATION): inactive; negative; mutagenic call [2]: inactive; negative; mutagenic call (Test System: AMES SALMONELLA TYPHIMURIUM, Strain/Indicator: TA100, Metabolic Activation: RAT LIVER S-9, PHENOBARBITAL AND BETA-NAPHTHOFLAVONE, Method: PREINCUBATION): inactive; negative; mutagenic call [3]: inactive; negative; mutagenic call (Test System: AMES SALMONELLA TYPHIMURIUM, Strain/Indicator: TA1535, Metabolic Activation: RAT LIVER S-9, PHENOBARBITAL AND BETA-NAPHTHOFLAVONE, Method: PREINCUBATION): inactive; negative; mutagenic call [4]: inactive; negative; mutagenic call (Test System: AMES SALMONELLA TYPHIMURIUM, Strain/Indicator: TA1537, Metabolic Activation: RAT LIVER S-9, PHENOBARBITAL AND BETA-NAPHTHOFLAVONE, Method: PREINCUBATION): inactive; negative; mutagenic call (Test System: E.COLI, Strain/Indicator: WP2UVRA/PKM101, Metabolic Activation: NONE, Method: PREINCUBATION): inactive; negative; mutagenic call (Test System: E.COLI, Strain/Indicator: WP2UVRA/PKM101, Metabolic Activation: RAT LIVER S-9, PHENOBARBITAL AND BETA-NAPHTHOFLAVONE, Method: PREINCUBATION): inactive; negative

Question: Which results are given for `CON`?
Answer: mutagenic call (Test System: AMES SALMONELLA TYPHIMURIUM, Strain/Indicator: TA98, Metabolic Activation: HAMSTER, LIVER, S-9, AROCLOR 1254 (10%), Method: PREINCUBATION): inactive; negative; mutagenic call [1]: inactive; negative; mutagenic call (Test System: AMES SALMONELLA TYPHIMURIUM, Strain/Indicator: TA98, Metabolic Activation: RAT, LIVER, S-9, AROCLOR 1254 (10%), Method: PREINCUBATION): inactive; negative; mutagenic call (Test System: AMES SALMONELLA TYPHIMURIUM, Strain/Indicator: TA100, Metabolic Activation: HAMSTER, LIVER, S-9, AROCLOR 1254 (10%), Method: PREINCUBATION): inactive; negative; mutagenic call [2]: inactive; negative; mutagenic call (Test System: AMES SALMONELLA TYPHIMURIUM, Strain/Indicator: TA100, Metabolic Activation: RAT, LIVER, S-9, AROCLOR 1254 (10%), Method: PREINCUBATION): inactive; negative; mutagenic call (Test System: AMES SALMONELLA TYPHIMURIUM, Strain/Indicator: TA1535, Metabolic Activation: HAMSTER, LIVER, S-9, AROCLOR 1254 (10%), Method: PREINCUBATION): inactive; negative; mutagenic call [3]: inactive; negative; mutagenic call (Test System: AMES SALMONELLA TYPHIMURIUM, Strain/Indicator: TA1535, Metabolic Activation: RAT, LIVER, S-9, AROCLOR 1254 (10%), Method: PREINCUBATION): inactive; negative; mutagenic call (Test System: AMES SALMONELLA TYPHIMURIUM, Strain/Indicator: TA1537, Metabolic Activation: HAMSTER, LIVER, S-9, AROCLOR 1254 (10%), Method: PREINCUBATION): inactive; negative; mutagenic call [4]: inactive; negative; mutagenic call (Test System: AMES SALMONELLA TYPHIMURIUM, Strain/Indicator: TA1537, Metabolic Activation: RAT, LIVER, S-9, AROCLOR 1254 (10%), Method: PREINCUBATION): inactive; negative

Question: For `CC(/C=C(/C#N)c1ccc(Cl)c(Cl)c1)C(c1ccccc1)C(C#N)c1ccc(Cl)c(Cl)c1` (centres undefined), which mutagenic call [5] is on record?
Answer: The mutagenic call was “active; positive”.

Question: For `OCc1ccccc1`, which mutagenic call (End Point: IN VIVO MICRONUCLEUS, Test System: BONE MARROW POLYCHROMATIC ERYTHROCYTES, Species: MOUSE, Strain/Sex: DDY/MALE, Route: IP) is on record?
Answer: The mutagenic call was “inactive; negative”.

Question: And the mutagenic call (Test System: AMES SALMONELLA TYPHIMURIUM, Strain/Indicator: TA97, Metabolic Activation: NONE, Method: PREINCUBATION)?
Answer: The mutagenic call was “inactive; negative”.

Question: And the mutagenic call (Test System: AMES SALMONELLA TYPHIMURIUM, Strain/Indicator: TA97, Metabolic Activation: RAT, LIVER, S-9, AROCLOR 1254, Method: PREINCUBATION)?
Answer: The mutagenic call was “inactive; negative”.

Question: What about the mutagenic call (Test System: AMES SALMONELLA TYPHIMURIUM, Strain/Indicator: TA98, Metabolic Activation: HAMSTER, LIVER, S-9, AROCLOR 1254, Method: PREINCUBATION) of the same molecule?
Answer: The mutagenic call was “inactive; negative”.

Question: What about the mutagenic call [1] of the same molecule?
Answer: The mutagenic call was “inactive; negative”.

Question: And the mutagenic call (Test System: AMES SALMONELLA TYPHIMURIUM, Strain/Indicator: TA98, Metabolic Activation: RAT, LIVER, S-9, AROCLOR 1254, Method: PREINCUBATION)?
Answer: The mutagenic call was “inactive; negative”.

Question: What about the mutagenic call (Test System: AMES SALMONELLA TYPHIMURIUM, Strain/Indicator: TA100, Metabolic Activation: HAMSTER, LIVER, S-9, AROCLOR 1254, Method: PREINCUBATION) of the same molecule?
Answer: Its mutagenic call is “inactive; negative”.

Question: What about the mutagenic call [2] of the same molecule?
Answer: Its mutagenic call is “inactive; negative”.

Question: And the mutagenic call [5]?
Answer: Its mutagenic call is “inactive; negative”.

Question: What about the mutagenic call (Test System: AMES SALMONELLA TYPHIMURIUM, Strain/Indicator: TA100, Metabolic Activation: RAT, LIVER, S-9, AROCLOR 1254, Method: PREINCUBATION) of the same molecule?
Answer: Its mutagenic call is “inactive; negative”.

Question: What about the mutagenic call (Test System: AMES SALMONELLA TYPHIMURIUM, Strain/Indicator: TA102, Metabolic Activation: NONE, Method: PREINCUBATION) of the same molecule?
Answer: Its mutagenic call is “inactive; negative”.

Question: And the mutagenic call (Test System: AMES SALMONELLA TYPHIMURIUM, Strain/Indicator: TA102, Metabolic Activation: RAT, LIVER, S-9, AROCLOR 1254, Method: PREINCUBATION)?
Answer: Its mutagenic call is “inactive; negative”.

Question: What about the mutagenic call (Test System: AMES SALMONELLA TYPHIMURIUM, Strain/Indicator: TA1535, Metabolic Activation: HAMSTER, LIVER, S-9, AROCLOR 1254, Method: PREINCUBATION) of the same molecule?
Answer: Its mutagenic call is “inactive; negative”.

Question: And the mutagenic call [3]?
Answer: Its mutagenic call is “inactive; negative”.

Question: And the mutagenic call (Test System: AMES SALMONELLA TYPHIMURIUM, Strain/Indicator: TA1535, Metabolic Activation: RAT, LIVER, S-9, AROCLOR 1254, Method: PREINCUBATION)?
Answer: The mutagenic call was “inactive; negative”.

Question: What about the mutagenic call (Test System: AMES SALMONELLA TYPHIMURIUM, Strain/Indicator: TA1537, Metabolic Activation: HAMSTER, LIVER, S-9, AROCLOR 1254, Method: PREINCUBATION) of the same molecule?
Answer: Its mutagenic call is “inactive; negative”.

Question: And the mutagenic call [4]?
Answer: The mutagenic call was “inactive; negative”.

Question: What about the mutagenic call (Test System: AMES SALMONELLA TYPHIMURIUM, Strain/Indicator: TA1537, Metabolic Activation: RAT, LIVER, S-9, AROCLOR 1254, Method: PREINCUBATION) of the same molecule?
Answer: The mutagenic call was “inactive; negative”.

Question: And the mutagenic call (Test System: Ames Salmonella typhimurium, Strain/Indicator: TA98, Metabolic Activation: None, Method: Direct plate incorporation)?
Answer: Its mutagenic call is “inactive; negative”.

Question: And the mutagenic call (Test System: Ames Salmonella typhimurium, Strain/Indicator: TA98, Metabolic Activation: Rat, liver, S-9, Aroclor 1254, Method: Direct plate incorporation)?
Answer: The mutagenic call was “inactive; negative”.

Question: What about the mutagenic call (Test System: Ames Salmonella typhimurium, Strain/Indicator: TA100, Metabolic Activation: None, Method: Direct plate incorporation) of the same molecule?
Answer: The mutagenic call was “inactive; negative”.

Question: What about the mutagenic call (Test System: Ames Salmonella typhimurium, Strain/Indicator: TA100, Metabolic Activation: Rat, liver, S-9, Aroclor 1254, Method: Direct plate incorporation) of the same molecule?
Answer: The mutagenic call was “inactive; negative”.

Question: And the mutagenic call (Test System: MOUSE LYMPHOMA, Strain/Indicator: L5178Y (TK+/TK-), Metabolic Activation: RAT, LIVER, S-9, AROCLOR 1254, Method: SUSPENSION/PLATE)?
Answer: The mutagenic call was “inactive; negative”.

Question: Which mutagenic call (Test System: AMES SALMONELLA TYPHIMURIUM, Strain/Indicator: TA98, Metabolic Activation: NONE, Method: STANDARD PLATE) does the source give for `COc1ccc(C=CC(=O)c2ccccc2)cc1` here?
Answer: Its mutagenic call is “inactive; negative”.

Question: What about the mutagenic call (Test System: AMES SALMONELLA TYPHIMURIUM, Strain/Indicator: TA98, Metabolic Activation: RAT, LIVER, S-9, AROCLOR 1254, Method: STANDARD PLATE) of the same molecule?
Answer: The mutagenic call was “inactive; negative”.

Question: And the mutagenic call [5]?
Answer: The mutagenic call was “inactive; negative”.

Question: What about the mutagenic call (Test System: AMES SALMONELLA TYPHIMURIUM, Strain/Indicator: TA100, Metabolic Activation: RAT, LIVER, S-9, AROCLOR 1254, Method: STANDARD PLATE) of the same molecule?
Answer: Its mutagenic call is “inactive; negative”.

Question: With `ClC(COCC(Cl)C(Cl)(Cl)Cl)C(Cl)(Cl)Cl` (centres undefined) as the molecule, how does the mutagenic call (Test System: AMES SALMONELLA TYPHIMURIUM, Strain/Indicator: TA98, Metabolic Activation: NONE, Method: MICROSUSPENSION) read?
Answer: Its mutagenic call is “inactive; negative”.

Question: What about the mutagenic call (Test System: AMES SALMONELLA TYPHIMURIUM, Strain/Indicator: TA98, Metabolic Activation: S-9, Method: MICROSUSPENSION) of the same molecule?
Answer: Its mutagenic call is “inactive; negative”.

Question: And the mutagenic call (Test System: AMES SALMONELLA TYPHIMURIUM, Strain/Indicator: TA100, Metabolic Activation: NONE, Method: MICROSUSPENSION)?
Answer: The mutagenic call was “active; positive”.

Question: And the mutagenic call (Test System: AMES SALMONELLA TYPHIMURIUM, Strain/Indicator: TA100, Metabolic Activation: S-9, Method: MICROSUSPENSION)?
Answer: The mutagenic call was “inactive; negative”.
